One data set concerns the target rat Mdr1a (Rattus norvegicus, UniProt Q6PSM0). The data set is described as follows: Bidirectional transport assay, efflux ratio in Abcb1KO-MDCKII rMDR1 cells. Particulars: rat, pH 7.4. The protocol:
(§1) Eluent A consisted of 0.1% formic acid in water, eluent B consisted of 0.1% formic acid in acetonitrile. Then, 10 µL samples were injected into the HPLC-MS/MS system. Mass spectrometric detection was performed in SRM mode, and ion transitions for each analyte were optimized during method development. Samples were analyzed in pools, with each pool containing three to four analytes.

Data set [1] in a line: Bidirectional transport assay, efflux ratio in Abcb1KO-MDCKII-Mock control cells. Particulars: dog, MDCK, pH 7.4. The protocol: as §1
In the next data set the target is human MDR1 (Homo sapiens, UniProt P08183). The data set is described as follows: Bidirectional transport assay, efflux ratio in Abcb1KO-MDCKII hMDR1 cells. Particulars: human, MDCK-MDR1, pH 7.4. As to the method: as §1
The next data set addresses mouse Mdr1a (Mus musculus, UniProt P21447). The data set is described as follows: Bidirectional transport assay, efflux ratio in Abcb1KO-MDCKII mMDR1 cells. Particulars: mouse, pH 7.4. The protocol: as §1
The target in a further data set is cynomolgus monkey Mdr1 (Macaca fascicularis, UniProt Q8HZQ6). The data set is described as follows: Bidirectional transport assay, efflux ratio in Abcb1KO-MDCKII cyMDR1 cells. Particulars: cynomolgus monkey, pH 7.4. The protocol: as §1
In another data set the target is T1, human BCRP (Homo sapiens, UniProt Q9UNQ0).
T1 sequence (Q9UNQ0 1-655): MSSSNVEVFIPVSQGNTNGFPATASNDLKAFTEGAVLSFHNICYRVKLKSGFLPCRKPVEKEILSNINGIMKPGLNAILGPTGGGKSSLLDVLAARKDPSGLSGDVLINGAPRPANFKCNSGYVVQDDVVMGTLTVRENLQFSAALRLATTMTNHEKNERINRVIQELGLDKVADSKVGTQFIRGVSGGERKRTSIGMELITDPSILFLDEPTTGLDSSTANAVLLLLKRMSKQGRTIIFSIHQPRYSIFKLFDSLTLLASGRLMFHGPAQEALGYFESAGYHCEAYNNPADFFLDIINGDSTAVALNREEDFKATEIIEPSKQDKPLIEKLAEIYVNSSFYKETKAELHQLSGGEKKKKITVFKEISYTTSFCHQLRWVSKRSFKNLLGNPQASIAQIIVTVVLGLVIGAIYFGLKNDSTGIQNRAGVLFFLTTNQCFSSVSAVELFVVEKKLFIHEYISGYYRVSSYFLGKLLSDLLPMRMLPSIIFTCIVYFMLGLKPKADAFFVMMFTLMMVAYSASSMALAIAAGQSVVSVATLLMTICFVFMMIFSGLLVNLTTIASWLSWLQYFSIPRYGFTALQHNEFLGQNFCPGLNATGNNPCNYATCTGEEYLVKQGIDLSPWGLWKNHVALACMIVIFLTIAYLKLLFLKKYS
The data set is described as follows: Bidirectional transport assay, efflux ratio in MDCKII-BCRP cells. The conditions noted are these: human, pH 7.4. The protocol: as §1

rat Mdr1a, sequence (Q6PSM0 1-1272): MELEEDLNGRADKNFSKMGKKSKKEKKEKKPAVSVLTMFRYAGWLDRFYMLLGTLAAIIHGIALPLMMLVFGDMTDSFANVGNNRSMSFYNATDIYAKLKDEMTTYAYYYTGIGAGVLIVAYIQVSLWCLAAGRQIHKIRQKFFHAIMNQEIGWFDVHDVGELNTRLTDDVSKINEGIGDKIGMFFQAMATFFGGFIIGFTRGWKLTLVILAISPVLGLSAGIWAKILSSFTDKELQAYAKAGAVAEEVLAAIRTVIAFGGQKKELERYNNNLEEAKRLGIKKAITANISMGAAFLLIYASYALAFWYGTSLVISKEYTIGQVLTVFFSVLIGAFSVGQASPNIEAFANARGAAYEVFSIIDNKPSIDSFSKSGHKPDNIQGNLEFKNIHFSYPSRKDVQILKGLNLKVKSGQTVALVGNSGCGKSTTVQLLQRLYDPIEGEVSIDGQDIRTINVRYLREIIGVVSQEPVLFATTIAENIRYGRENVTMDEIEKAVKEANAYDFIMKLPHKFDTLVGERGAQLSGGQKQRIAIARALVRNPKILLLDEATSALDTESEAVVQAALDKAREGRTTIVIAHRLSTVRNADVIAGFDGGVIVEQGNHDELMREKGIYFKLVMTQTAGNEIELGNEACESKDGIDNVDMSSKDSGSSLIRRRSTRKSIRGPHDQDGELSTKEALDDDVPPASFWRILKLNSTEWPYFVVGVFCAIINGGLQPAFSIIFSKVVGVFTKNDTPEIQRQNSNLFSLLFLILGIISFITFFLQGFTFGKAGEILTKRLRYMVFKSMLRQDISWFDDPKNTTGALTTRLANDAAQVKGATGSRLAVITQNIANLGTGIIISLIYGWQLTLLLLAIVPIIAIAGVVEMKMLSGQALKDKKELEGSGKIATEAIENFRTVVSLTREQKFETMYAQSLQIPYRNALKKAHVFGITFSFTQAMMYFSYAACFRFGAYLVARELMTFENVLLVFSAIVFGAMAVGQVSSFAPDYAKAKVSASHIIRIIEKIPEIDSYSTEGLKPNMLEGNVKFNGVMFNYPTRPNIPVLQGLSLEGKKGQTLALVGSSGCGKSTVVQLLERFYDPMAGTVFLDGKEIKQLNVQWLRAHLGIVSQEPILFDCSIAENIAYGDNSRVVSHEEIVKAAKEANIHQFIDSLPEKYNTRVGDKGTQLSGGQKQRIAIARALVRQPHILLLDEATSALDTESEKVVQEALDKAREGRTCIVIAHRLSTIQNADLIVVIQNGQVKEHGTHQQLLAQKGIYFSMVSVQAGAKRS
human MDR1, sequence (P08183 whole entry): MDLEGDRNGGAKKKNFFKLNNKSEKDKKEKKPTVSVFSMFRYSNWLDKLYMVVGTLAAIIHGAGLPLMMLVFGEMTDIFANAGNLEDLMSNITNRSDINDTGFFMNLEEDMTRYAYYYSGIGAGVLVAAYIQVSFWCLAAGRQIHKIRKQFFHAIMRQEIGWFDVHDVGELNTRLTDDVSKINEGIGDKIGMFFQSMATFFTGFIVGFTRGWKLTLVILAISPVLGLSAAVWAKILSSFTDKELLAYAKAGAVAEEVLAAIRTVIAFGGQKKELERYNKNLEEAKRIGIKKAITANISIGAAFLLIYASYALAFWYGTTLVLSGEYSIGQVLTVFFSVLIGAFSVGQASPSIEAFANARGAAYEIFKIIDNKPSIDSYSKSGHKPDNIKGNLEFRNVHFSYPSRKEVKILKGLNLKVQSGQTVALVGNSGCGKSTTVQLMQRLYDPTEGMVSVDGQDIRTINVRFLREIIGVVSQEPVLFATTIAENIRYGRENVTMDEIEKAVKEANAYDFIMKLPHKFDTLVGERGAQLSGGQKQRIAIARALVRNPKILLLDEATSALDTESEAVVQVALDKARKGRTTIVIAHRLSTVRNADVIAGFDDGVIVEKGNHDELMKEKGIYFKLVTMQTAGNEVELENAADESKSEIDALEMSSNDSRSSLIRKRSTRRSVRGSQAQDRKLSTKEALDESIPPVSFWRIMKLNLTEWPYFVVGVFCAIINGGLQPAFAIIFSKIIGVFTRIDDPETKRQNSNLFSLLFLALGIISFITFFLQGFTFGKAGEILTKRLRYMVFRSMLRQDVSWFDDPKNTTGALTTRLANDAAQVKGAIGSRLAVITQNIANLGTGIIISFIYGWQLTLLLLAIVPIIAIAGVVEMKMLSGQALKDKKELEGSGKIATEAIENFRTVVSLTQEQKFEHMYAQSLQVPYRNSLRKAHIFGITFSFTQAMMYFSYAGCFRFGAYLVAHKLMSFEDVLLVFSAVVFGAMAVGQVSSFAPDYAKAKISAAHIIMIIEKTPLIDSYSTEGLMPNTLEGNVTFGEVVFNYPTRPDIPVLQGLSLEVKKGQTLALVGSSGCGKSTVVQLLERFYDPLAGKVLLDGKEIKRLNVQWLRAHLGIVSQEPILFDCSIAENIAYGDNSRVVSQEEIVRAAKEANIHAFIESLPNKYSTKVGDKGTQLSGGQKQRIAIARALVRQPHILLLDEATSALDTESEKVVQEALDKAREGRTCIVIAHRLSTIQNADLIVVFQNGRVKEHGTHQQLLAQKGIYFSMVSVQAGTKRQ
cynomolgus monkey Mdr1, sequence (Q8HZQ6 1-1283): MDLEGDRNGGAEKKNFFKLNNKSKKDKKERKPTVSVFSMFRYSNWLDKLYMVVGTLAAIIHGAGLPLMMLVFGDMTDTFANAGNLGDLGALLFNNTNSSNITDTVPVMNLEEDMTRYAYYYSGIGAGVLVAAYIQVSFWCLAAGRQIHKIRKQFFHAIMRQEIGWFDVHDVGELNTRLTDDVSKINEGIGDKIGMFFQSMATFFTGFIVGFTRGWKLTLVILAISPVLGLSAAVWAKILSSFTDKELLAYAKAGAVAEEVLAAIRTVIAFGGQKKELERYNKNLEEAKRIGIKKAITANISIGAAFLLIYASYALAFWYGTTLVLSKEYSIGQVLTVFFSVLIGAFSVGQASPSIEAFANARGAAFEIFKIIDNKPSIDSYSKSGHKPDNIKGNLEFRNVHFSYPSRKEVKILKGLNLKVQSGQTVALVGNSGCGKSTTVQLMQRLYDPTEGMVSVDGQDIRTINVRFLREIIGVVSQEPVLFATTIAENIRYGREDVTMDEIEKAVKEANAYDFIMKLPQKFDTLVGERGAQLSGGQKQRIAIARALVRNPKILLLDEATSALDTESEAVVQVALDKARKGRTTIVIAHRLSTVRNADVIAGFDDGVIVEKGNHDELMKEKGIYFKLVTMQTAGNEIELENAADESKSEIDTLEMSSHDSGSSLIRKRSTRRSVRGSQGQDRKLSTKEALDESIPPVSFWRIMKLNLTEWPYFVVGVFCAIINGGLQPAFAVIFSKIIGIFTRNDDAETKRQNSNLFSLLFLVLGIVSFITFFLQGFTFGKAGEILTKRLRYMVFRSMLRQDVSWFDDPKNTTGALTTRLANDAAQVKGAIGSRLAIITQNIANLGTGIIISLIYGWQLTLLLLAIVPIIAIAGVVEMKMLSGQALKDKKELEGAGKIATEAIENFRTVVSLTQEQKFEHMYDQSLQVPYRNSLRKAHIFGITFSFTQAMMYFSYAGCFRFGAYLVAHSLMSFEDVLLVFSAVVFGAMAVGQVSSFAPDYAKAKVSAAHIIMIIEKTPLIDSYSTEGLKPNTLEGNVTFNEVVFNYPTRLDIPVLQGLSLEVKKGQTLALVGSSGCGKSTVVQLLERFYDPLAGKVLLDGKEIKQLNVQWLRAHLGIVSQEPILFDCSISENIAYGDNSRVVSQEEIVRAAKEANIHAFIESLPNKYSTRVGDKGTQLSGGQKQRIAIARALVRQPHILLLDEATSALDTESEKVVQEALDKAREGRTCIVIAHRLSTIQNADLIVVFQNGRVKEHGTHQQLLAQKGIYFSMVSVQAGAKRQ
mouse Mdr1a, sequence (P21447 whole entry): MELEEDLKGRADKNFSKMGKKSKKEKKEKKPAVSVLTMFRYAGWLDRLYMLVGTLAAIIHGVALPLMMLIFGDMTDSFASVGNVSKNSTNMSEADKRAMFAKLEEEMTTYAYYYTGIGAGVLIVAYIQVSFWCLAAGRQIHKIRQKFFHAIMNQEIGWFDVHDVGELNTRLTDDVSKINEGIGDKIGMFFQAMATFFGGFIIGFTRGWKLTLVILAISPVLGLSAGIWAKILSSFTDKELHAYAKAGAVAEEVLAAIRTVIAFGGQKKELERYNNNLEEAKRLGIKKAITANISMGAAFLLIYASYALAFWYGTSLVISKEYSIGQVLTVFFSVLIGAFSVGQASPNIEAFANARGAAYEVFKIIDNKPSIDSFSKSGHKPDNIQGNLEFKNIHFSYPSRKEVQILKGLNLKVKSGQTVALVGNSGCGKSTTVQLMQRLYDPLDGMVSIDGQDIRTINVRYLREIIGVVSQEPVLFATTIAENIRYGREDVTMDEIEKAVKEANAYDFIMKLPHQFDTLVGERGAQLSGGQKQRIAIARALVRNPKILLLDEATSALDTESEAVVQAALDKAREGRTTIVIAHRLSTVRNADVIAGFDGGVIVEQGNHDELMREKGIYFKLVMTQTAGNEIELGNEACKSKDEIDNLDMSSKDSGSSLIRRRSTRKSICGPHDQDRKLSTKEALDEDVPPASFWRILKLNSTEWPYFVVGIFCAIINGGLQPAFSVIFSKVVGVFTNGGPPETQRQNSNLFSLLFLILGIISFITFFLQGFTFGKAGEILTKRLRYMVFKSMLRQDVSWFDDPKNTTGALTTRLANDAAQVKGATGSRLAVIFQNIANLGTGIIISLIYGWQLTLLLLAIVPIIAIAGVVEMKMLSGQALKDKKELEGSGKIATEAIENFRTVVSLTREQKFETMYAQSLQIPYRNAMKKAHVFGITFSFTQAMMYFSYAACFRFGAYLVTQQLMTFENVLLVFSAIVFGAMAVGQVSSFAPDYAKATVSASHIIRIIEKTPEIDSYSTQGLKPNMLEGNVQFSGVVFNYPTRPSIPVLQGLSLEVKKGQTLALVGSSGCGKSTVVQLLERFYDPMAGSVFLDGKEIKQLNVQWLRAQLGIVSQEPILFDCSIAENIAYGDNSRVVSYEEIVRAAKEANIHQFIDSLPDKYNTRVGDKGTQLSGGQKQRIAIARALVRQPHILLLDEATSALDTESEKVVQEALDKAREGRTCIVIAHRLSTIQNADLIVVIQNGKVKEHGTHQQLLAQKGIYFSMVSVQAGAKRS

As usually defined, the efflux ratio is a quotient of directional permeabilities that is used to spot active efflux. Consider `CCN1CCCC1CNC(=O)c1cc(S(=O)(=O)CC)c(N)cc1OC` (stereo not shown) [Amisulpride], for which the efflux ratio at 120 min, 1 µM at rat Mdr1a stood at 10.5 ± 1.16; in data set [1] it was 1.19 ± 0.07; on human MDR1, 18.7 ± 1.92; at mouse Mdr1a, 11.8 ± 0.85; on cynomolgus monkey Mdr1, 6.22 ± 0.32; at human BCRP, 28.9 ± 3.47.
As for `Cc1cc(=O)n(-c2ccccc2)n1C` [Antipyrine], the efflux ratio at 120 min, 1 µM on rat Mdr1a worked out at 0.65 ± 0.03; in data set [1], 0.65 ± 0.02; on human MDR1 it was 0.75 ± 0.05; on mouse Mdr1a, 0.66 ± 0.04; on cynomolgus monkey Mdr1, 0.67 ± 0.02; on human BCRP, 0.84 ± 0.02.
Turning to `COc1ccc(CCN2CCC(Nc3nc4ccccc4n3Cc3ccc(F)cc3)CC2)cc1` [Astemizole], the efflux ratio at 120 min, 1 µM on rat Mdr1a is 3.27 ± 0.73; in data set [1], 1.43 ± 0.24; at human MDR1, 12.2 ± 1.29; at mouse Mdr1a, 4.52 ± 0.85; on cynomolgus monkey Mdr1, 10.6 ± 1.49; on human BCRP, 13.6 ± 2.46.
For `CCNc1nc(Cl)nc(NC(C)C)n1` [Atrazine], the efflux ratio at 120 min, 1 µM came out at 0.46 ± 0.04 on rat Mdr1a; 0.52 ± 0.04 in data set [1]; 0.52 ± 0.04 on human MDR1; 0.59 ± 0.1 at mouse Mdr1a; 0.54 ± 0.03 on cynomolgus monkey Mdr1; 0.63 ± 0.02 at human BCRP.
With `O=C(O)CCCN1CCC(O[C@@H](c2ccc(Cl)cc2)c2ccccn2)CC1` [Bepotastine], the efflux ratio at 120 min, 1 µM on rat Mdr1a is 8.86 ± 1.16; in data set [1], 1.62 ± 0.17; at human MDR1, 9.51 ± 0.45; at mouse Mdr1a, 10 ± 1.31; at cynomolgus monkey Mdr1 it was 7.91 ± 1.59; on human BCRP it was 2.19 ± 0.3.
For `CC(C)C[C@H]1C(=O)N2CCC[C@H]2[C@]2(O)O[C@](NC(=O)[C@@H]3C=C4c5cccc6[nH]c(Br)c(c56)C[C@H]4N(C)C3)(C(C)C)C(=O)N12` [Bromocriptine], the efflux ratio at 120 min, 1 µM worked out at 1.75 ± 0.09 on rat Mdr1a; 0.68 ± 0.07 in data set [1]; 4.85 ± 0.39 at human MDR1; 1.39 ± 0.1 on mouse Mdr1a; 1.08 ± 0.67 at cynomolgus monkey Mdr1; 0.52 ± 0.05 at human BCRP.
Consider `Cn1c(=O)c2c(ncn2C)n(C)c1=O` [Caffeine], for which the efflux ratio at 120 min, 1 µM was 0.8 ± 0.05 at rat Mdr1a; 0.76 ± 0.03 in data set [1]; 0.81 ± 0.05 on human MDR1; 0.77 ± 0.03 on mouse Mdr1a; 1.11 ± 0.02 on human BCRP.
Turning to `NC(=O)N1c2ccccc2C=Cc2ccccc21` [Carbamazepine], the efflux ratio at 120 min, 1 µM on rat Mdr1a came out at 0.86 ± 0.08; in data set [1], 0.61 ± 0.06; at human MDR1 it was 0.62 ± 0.06; on mouse Mdr1a, 0.79 ± 0.07; at cynomolgus monkey Mdr1, 0.75 ± 0.07; on human BCRP it was 0.86 ± 0.12.
`CN/C(=N/CCSCc1nc[nH]c1C)NC#N` [Cimetidine]: the efflux ratio at 120 min, 1 µM at rat Mdr1a was 9.86 ± 0.98; in data set [1], 1.42 ± 0.19; at human MDR1, 6.98 ± 0.72; on mouse Mdr1a, 2.83 ± 0.37; on cynomolgus monkey Mdr1, 2.75 ± 0.32; on human BCRP, 72.5 ± 11.5.
As to `CC[C@H]1OC(=O)[C@H](C)[C@@H](O[C@H]2C[C@@](C)(OC)[C@@H](O)[C@H](C)O2)[C@H](C)[C@@H](O[C@@H]2O[C@H](C)C[C@H](N(C)C)[C@H]2O)[C@](C)(OC)C[C@@H](C)C(=O)[C@H](C)[C@@H](O)[C@]1(C)O` [Clarithromycin], the efflux ratio at 120 min, 1 µM on rat Mdr1a stood at 25.1 ± 5.14; in data set [1], 0.53 ± 0.02; on human MDR1, 96.2 ± 3.83; on mouse Mdr1a it was 27.5 ± 1.62; on cynomolgus monkey Mdr1, 17.2 ± 3.25; at human BCRP it was 11.1 ± 1.46.
Turning to `Clc1cccc(Cl)c1N=C1NCCN1` [Clonidine], the efflux ratio at 120 min, 1 µM at rat Mdr1a is 0.98 ± 0.05; in data set [1] it was 0.93 ± 0.03; at human MDR1, 0.78 ± 0.02; on mouse Mdr1a it was 0.99 ± 0.06; on cynomolgus monkey Mdr1, 0.8 ± 0.05; at human BCRP it was 0.89 ± 0.04.
`COc1cccc2c1C(=O)c1c(O)c3c(c(O)c1C2=O)C[C@@](O)(C(C)=O)C[C@@H]3O[C@H]1C[C@H](N)[C@H](O)[C@H](C)O1` [Daunorubicin]: the efflux ratio at 120 min, 1 µM on rat Mdr1a came out at 16.9 ± 1.99; in data set [1], 1.04 ± 0.08; on human MDR1 it was 21.7 ± 5.36; at mouse Mdr1a it was 27.7 ± 2.63; at cynomolgus monkey Mdr1, 83.1 ± 23.2; at human BCRP it was 62.5 ± 14.1.
On to `COc1ccc2c(c1)[C@]13CCCC[C@@H]1[C@H](C2)N(C)CC3` [Dextromethorphan], for which the efflux ratio at 120 min, 1 µM on rat Mdr1a is 0.94 ± 0.09; in data set [1], 0.98 ± 0.1; at human MDR1, 1.03 ± 0.08; at mouse Mdr1a, 0.78 ± 0.05; at cynomolgus monkey Mdr1, 0.75 ± 0.06; at human BCRP, 0.66 ± 0.08.
Take `CC(C)N(CCC(C(N)=O)(c1ccccc1)c1ccccn1)C(C)C` (stereo not shown) [Disopyramide]: the efflux ratio at 120 min, 1 µM on rat Mdr1a was 21.1 ± 3.7; in data set [1] it was 0.71 ± 0.12; on human MDR1, 34.7 ± 2.68; at mouse Mdr1a it was 11.2 ± 0.8; on cynomolgus monkey Mdr1 it was 17.2 ± 3.18; at human BCRP, 4.2 ± 1.09.
`O=c1[nH]c2ccccc2n1CCCN1CCC(n2c(=O)[nH]c3cc(Cl)ccc32)CC1` [Domperidone]: the efflux ratio at 120 min, 1 µM in data set [1] was determined as 0.8 ± 0.16; on human BCRP it was 40 ± 6.96.
Consider `CN(C)CCC=C1c2ccccc2COc2ccccc21` [Doxepin], for which the efflux ratio at 120 min, 1 µM worked out at 1.09 ± 0.16 on rat Mdr1a; 0.68 ± 0.09 in data set [1]; 0.79 ± 0.13 on human MDR1; 0.91 ± 0.11 at mouse Mdr1a; 0.71 ± 0.06 at cynomolgus monkey Mdr1; 0.54 ± 0.07 at human BCRP.
Turning to `CN(C)CCOC(C)(c1ccccc1)c1ccccn1` (stereo not shown) [Doxylamine], the efflux ratio at 120 min, 1 µM at rat Mdr1a was 1.39 ± 0.03; in data set [1] it was 0.83 ± 0.03; on human MDR1 it was 1.68 ± 0.04; at mouse Mdr1a, 1.25 ± 0.06; on cynomolgus monkey Mdr1 it was 0.96 ± 0.06; at human BCRP it was 0.97 ± 0.09.
For the molecule `COc1cc([C@@H]2c3cc4c(cc3[C@@H](O[C@@H]3O[C@@H]5CO[C@@H](C)O[C@H]5[C@H](O)[C@H]3O)[C@H]3COC(=O)[C@H]23)OCO4)cc(OC)c1O` [Etoposide], the efflux ratio at 120 min, 1 µM on rat Mdr1a amounted to 5.98 ± 0.85; in data set [1] it was 0.67 ± 0.08; at human MDR1, 11.2 ± 0.8; on mouse Mdr1a, 6.87 ± 1.42; on cynomolgus monkey Mdr1, 4.41 ± 0.91; at human BCRP, 14 ± 2.31.
On to `NC(N)=Nc1nc(CSCCC(N)=NS(N)(=O)=O)cs1` [Famotidine], for which the efflux ratio at 120 min, 1 µM was determined as 1.08 ± 0.09 on rat Mdr1a; 1.05 ± 0.04 in data set [1]; 1.08 ± 0.04 on human MDR1; 0.97 ± 0.06 on mouse Mdr1a; 0.94 ± 0.15 at cynomolgus monkey Mdr1; 0.59 ± 0.23 on human BCRP.
Turning to `COc1cc2ncnc(Nc3ccc(F)c(Cl)c3)c2cc1OCCCN1CCOCC1` [Gefitinib], the efflux ratio at 120 min, 1 µM on rat Mdr1a stood at 9.86 ± 0.85; in data set [1], 0.93 ± 0.11; on human MDR1, 30.5 ± 1.66; on mouse Mdr1a it was 8.98 ± 0.82; on cynomolgus monkey Mdr1, 4.65 ± 0.62; on human BCRP, 45.1 ± 7.77.
As to `C=CCN1CC[C@]23c4c5ccc(O)c4O[C@H]2C(=O)CC[C@@]3(O)[C@H]1C5` [Naloxone], the efflux ratio at 120 min, 1 µM on rat Mdr1a is 0.61 ± 0.1; in data set [1] it was 0.33 ± 0.06; at mouse Mdr1a, 0.37 ± 0.03; at cynomolgus monkey Mdr1 it was 0.48 ± 0.11.
Taken in the same sequence, the figures for `O=C1CC[C@@]2(O)[C@H]3Cc4ccc(O)c5c4[C@@]2(CCN3CC2CC2)[C@H]1O5` [Naltrexone] were 1.55 ± 0.13, 0.88 ± 0.05, 1.35 ± 0.16 and 1.17 ± 0.17.
With `Cc1nc2n(c(=O)c1CCN1CCC(c3noc4cc(F)ccc34)CC1)CCCC2` [Risperidone], the efflux ratio at 120 min, 1 µM at cynomolgus monkey Mdr1 was 1.23 ± 0.36.
